Assay results taken from patent US20240138411A1, “METHOD OF […] OF SUGARCANE” (CORTEVA AGRISCIENCE LLC, priority 2021, published 2024).

Tested on: sugarcane
Assay: Sugarcane flowering inhibition field trials, floral induction rated on UFSCar scale
Assay type: in vivo
Settings: 475 g ai/ha
Method: In order to explore the activity of florpyrauxifen as flowering inhibitor in sugarcane, field studies were carried out. Florpyrauxifen-benzyl was tested at rates from 2 to 20 grams active ingredient per hectare (g ai/ha) and compared to Ethrel® 720 (Bayer), the standard treatment. The flowering inhibition effect was assessed by checking the floral induction in sugarcane through the percentage scale recommended by UFSCar (Federal University of Sao Carlos, Sao Paulo, Brazil).
Four trials were carried out in sugarcane where florpyrauxifen-benzyl (Rinskor®), applied at a rate of 2 to 20 g ai/ha, was compared to ethephon (Ethrel® 720) applied at a rate of 475 g ai/ha. Control plots of untreated sugarcane were also evaluated. Rinskor® and Ethrel® 720 were diluted in water and a single application for each study (backpack sprayer) was performed delivering 50 L of spray solution per ha at the reproductive stage of sugarcane and at a maximum 150 days before harvest. The activity of florpyrauxifen-benzyl as a flowering inhibitor was measured via assessments (Scale of flowering inhibition—see chart 1) performed at 0, 14, 30, 45, 60, 75, 90, 120, 150 days after application, or up to harvest time. The assessments were measured in sugarcane stems, rating the flowering induction according to the UFSCar scale shown below. Significance of treatment effect was evaluated with F-approximate test (α=0.1) and least square means from different treatments were compared with Tukey's test.

O=P(O)(O)CCCl [ETHREL720, 2-chloroethylphosphonic acid]
% Referring to Scale (Table 1, 75 DAA): 12.4%
Frequency 1/1 (0%) (Table 1, 75 DAA): 17.5%
Frequency 2/1 (15%) (Table 1, 75 DAA): 82.5%
Frequency 3/1 (30%) (Table 1, 75 DAA): 0.0%
Frequency 4/1 (50%) (Table 1, 75 DAA): 0.0%
Frequency 4/2 (80%) (Table 1, 75 DAA): 0.0%
Frequency 4/3 (90%) (Table 1, 75 DAA): 0.0%
Frequency 4/4 (100%) (Table 1, 75 DAA): 0.0%
% Referring to Scale (Table 1, 90 DAA): 13.1%
Frequency 1/1 (0%) (Table 1, 90 DAA): 20.0%
Frequency 2/1 (15%) (Table 1, 90 DAA): 72.5%
Frequency 3/1 (30%) (Table 1, 90 DAA): 7.5%
Frequency 4/1 (50%) (Table 1, 90 DAA): 0.0%
Frequency 4/2 (80%) (Table 1, 90 DAA): 0.0%
Frequency 4/3 (90%) (Table 1, 90 DAA): 0.0%
Frequency 4/4 (100%) (Table 1, 90 DAA): 0.0%
% Referring to Scale (Table 1, 120 DAA): 18.1%
Frequency 1/1 (0%) (Table 1, 120 DAA): 0.0%
Frequency 2/1 (15%) (Table 1, 120 DAA): 87.5%
Frequency 3/1 (30%) (Table 1, 120 DAA): 10.0%
Frequency 4/1 (50%) (Table 1, 120 DAA): 0.0%
Frequency 4/2 (80%) (Table 1, 120 DAA): 2.5%
Frequency 4/3 (90%) (Table 1, 120 DAA): 0.0%
Frequency 4/4 (100%) (Table 1, 120 DAA): 0.0%
% Referring to Scale (Table 2, 75 DAA): 0.8%
Frequency 1/1 (0%) (Table 2, 75 DAA): 95.0%
Frequency 2/1 (15%) (Table 2, 75 DAA): 5.0%
Frequency 3/1 (30%) (Table 2, 75 DAA): 0.0%
Frequency 4/1 (50%) (Table 2, 75 DAA): 0.0%
Frequency 4/2 (80%) (Table 2, 75 DAA): 0.0%
Frequency 4/3 (90%) (Table 2, 75 DAA): 0.0%
Frequency 4/4 (100%) (Table 2, 75 DAA): 0.0%
% Referring to Scale (Table 2, 90 DAA): 51.8%
Frequency 1/1 (0%) (Table 2, 90 DAA): 0.0%
Frequency 2/1 (15%) (Table 2, 90 DAA): 0.0%
Frequency 3/1 (30%) (Table 2, 90 DAA): 25.0%
Frequency 4/1 (50%) (Table 2, 90 DAA): 52.5%
Frequency 4/2 (80%) (Table 2, 90 DAA): 22.5%
Frequency 4/3 (90%) (Table 2, 90 DAA): 0.0%
Frequency 4/4 (100%) (Table 2, 90 DAA): 0.0%
% Referring to Scale (Table 2, 120 DAA): 98.0%
Frequency 1/1 (0%) (Table 2, 120 DAA): 0.0%
Frequency 2/1 (15%) (Table 2, 120 DAA): 0.0%
Frequency 3/1 (30%) (Table 2, 120 DAA): 0.0%
Frequency 4/1 (50%) (Table 2, 120 DAA): 0.0%
Frequency 4/2 (80%) (Table 2, 120 DAA): 2.5%
Frequency 4/3 (90%) (Table 2, 120 DAA): 15.0%
Frequency 4/4 (100%) (Table 2, 120 DAA): 82.5%
% Referring to Scale (Table 3, 90 DAA): 0.0%
Frequency 1/1 (0%) (Table 3, 90 DAA): 100.0%
Frequency 2/1 (15%) (Table 3, 90 DAA): 0.0%
Frequency 3/1 (30%) (Table 3, 90 DAA): 0.0%
Frequency 4/1 (50%) (Table 3, 90 DAA): 0.0%
Frequency 4/2 (80%) (Table 3, 90 DAA): 0.0%
Frequency 4/3 (90%) (Table 3, 90 DAA): 0.0%
Frequency 4/4 (100%) (Table 3, 90 DAA): 0.0%
% Referring to Scale (Table 3, 120 DAA): 1.5%
Frequency 1/1 (0%) (Table 3, 120 DAA): 90.0%
Frequency 2/1 (15%) (Table 3, 120 DAA): 10.0%
Frequency 3/1 (30%) (Table 3, 120 DAA): 0.0%
Frequency 4/1 (50%) (Table 3, 120 DAA): 0.0%
Frequency 4/2 (80%) (Table 3, 120 DAA): 0.0%
Frequency 4/3 (90%) (Table 3, 120 DAA): 0.0%
Frequency 4/4 (100%) (Table 3, 120 DAA): 0.0%
% Referring to Scale (Table 3, 150 DAA): 0.0%
Frequency 1/1 (0%) (Table 3, 150 DAA): 100.0%
Frequency 2/1 (15%) (Table 3, 150 DAA): 0.0%
Frequency 3/1 (30%) (Table 3, 150 DAA): 0.0%
Frequency 4/1 (50%) (Table 3, 150 DAA): 0.0%
Frequency 4/2 (80%) (Table 3, 150 DAA): 0.0%
Frequency 4/3 (90%) (Table 3, 150 DAA): 0.0%
Frequency 4/4 (100%) (Table 3, 150 DAA): 0.0%
% Referring to Scale (Table 4, 90 DAA): 4.9%
Frequency 1/1 (0%) (Table 4, 90 DAA): 67.5%
Frequency 2/1 (15%) (Table 4, 90 DAA): 32.5%
Frequency 3/1 (30%) (Table 4, 90 DAA): 0.0%
Frequency 4/1 (50%) (Table 4, 90 DAA): 0.0%
Frequency 4/2 (80%) (Table 4, 90 DAA): 0.0%
Frequency 4/3 (90%) (Table 4, 90 DAA): 0.0%
Frequency 4/4 (100%) (Table 4, 90 DAA): 0.0%
